Key:
Assay in all cases: relative viability (nuclei count vs DMSO), 5 days (fraction); higher = more cells survive
Masitinib + Trametinib = compound: Cc1ccc(NC(=O)c2ccc(CN3CCN(C)CC3)cc2)cc1Nc1nc(-c2cccnc2)cs1 [Masitinib] + CC(=O)Nc1cccc(-n2c(=O)n(C3CC3)c(=O)c3c(Nc4ccc(I)cc4F)n(C)c(=O)c(C)c32)c1 [Trametinib] (partner 0.02 µM)
Method in brief: (§1)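 Lung cancer cell lines in 1536-well plates were dosed by pin tool the day after seeding, either with one drug alone or with a fixed anchor-drug dose plus five library-drug doses (not always all listed) in √10 steps. After 5 days, cells were fixed and their nuclei stained in one step (final 0.05% Triton X-100, 1% formaldehyde, 1 ug/ml Hoechst), then counted on 4× images. Relative viability is the nuclei count in treated wells divided by that in vehicle wells. Values are medians of duplicate plates.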

Masitinib + Tozasertib = compound: Cc1ccc(NC(=O)c2ccc(CN3CCN(C)CC3)cc2)cc1Nc1nc(-c2cccnc2)cs1 [Masitinib] + Cc1cc(Nc2cc(N3CCN(C)CC3)nc(Sc3ccc(NC(=O)C4CC4)cc3)n2)n[nH]1 [Tozasertib] (partner 0.1 µM)
Method in brief: as §1

[1] = compound: CC1=CC(=CC=C1)NC2=NC(=CS2)C3=CC=NC=C3 + C[C@@H](Oc1cc(-c2cnn(C3CCNCC3)c2)cnc1N)c1c(Cl)ccc(F)c1Cl [Crizotinib] (partner 1 µM)
Method in brief: as §1

Masitinib + Decitabine = compound: Cc1ccc(NC(=O)c2ccc(CN3CCN(C)CC3)cc2)cc1Nc1nc(-c2cccnc2)cs1 [Masitinib] + Nc1ncn([C@H]2C[C@H](O)[C@@H](CO)O2)c(=O)n1 [Decitabine] (partner 2 µM)
Method in brief: as §1

For UMC-11, the relative viability (Masitinib + Trametinib; first compound 0.01 µM) was 0.431, the relative viability (Masitinib + Trametinib; first compound 0.03162 µM) was 0.588 and the relative viability (Masitinib + Trametinib; first compound 0.1 µM) was 0.617. The relative viability (Masitinib + Trametinib; first compound 0.3162 µM) was 0.627, the relative viability (Masitinib + Trametinib; first compound 1 µM) was 0.804 and the relative viability (Masitinib + Tozasertib; first compound 0.01 µM) was 0.204. For the same cell line, the relative viability (Masitinib + Tozasertib; first compound 0.03162 µM) was 0.207, the relative viability (Masitinib + Tozasertib; first compound 0.1 µM) was 0.198 and the relative viability (Masitinib + Tozasertib; first compound 0.3162 µM) was 0.211. For the same cell line, the relative viability (Masitinib + Tozasertib; first compound 1 µM) was 0.195, the relative viability ([1]; first compound 0.08 µM) was 0.602 and the relative viability ([1]; first compound 0.253 µM) was 0.582. The relative viability ([1]; first compound 0.8 µM) was 0.544, the relative viability ([1]; first compound 2.53 µM) was 0.579 and the relative viability ([1]; first compound 8 µM) was 0.72. The relative viability (Masitinib + Decitabine; first compound 0.01 µM) was 0.565, the relative viability (Masitinib + Decitabine; first compound 0.03162 µM) was 0.641 and the relative viability (Masitinib + Decitabine; first compound 0.1 µM) was 0.692. The relative viability (Masitinib + Decitabine; first compound 0.3162 µM) was 0.608 and the relative viability (Masitinib + Decitabine; first compound 1 µM) was 0.596.
